Laboratory results reported in patent publication US9321764B2, “Dihydro-pyrrolopyridinone inhibitors” (AbbVie Inc., priority 2013, dated 2016).
Read-outs that look alike come from different tables or passages of the source.

Legend:
[1] = target: T1, BRD4 (BDI_K57-E168) (Homo sapiens, UniProt O60885); assay: TR-FRET bromodomain binding assay, first bromodomain of BRD4; settings: His-tagged BD1, 100 nM Alexa647 probe; TR-FRET protocol A-E given per row
T1 construct: BD1: amino acids K57-E168; made in house
In short: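 His-tagged BRD4 BD1 (K57-E168), 8 nM, with 1 nM Eu-anti-His antibody and 100 nM Alexa647-labelled BET-inhibitor probe in pH 6.0 phosphate buffer, 2% DMSO. TR-FRET read after 1 h at room temperature. IC50 from 4-parameter fit, converted to Ki using probe Kd and concentration.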

[2] = tested on: breast cancer cell line MX-1; assay: MX-1 cell line proliferation assay; format: cell-based; settings: MX-1 cells, 3-day proliferation assay, Cell Titer Glo, read-out: Cellular proliferation EC50
Method: The impact of compounds of the Examples on cancer cell proliferation was determined using the breast cancer cell line MX-1 (ATCC) in a 3-day proliferation assay and the data are reported in Table 1. MX-1 cells were maintained in RPMI 1640 medium (Sigma) supplemented with 10% FBS at 37° C. and an atmosphere of 5% CO2. For compound testing, MX-1 cells were plated in 96-well black bottom plates at a density of 5000 cells/well in 90 μL of culture media and incubated at 37° overnight to allow cell adhesion and spreading. Compound dilution series were prepared in DMSO via a 3-fold serial dilution from 3 mM to 0.1 μM. The DMSO dilution series were then diluted 1:100 in phosphate buffered saline, and 10 μL of the resulted solution were added to the appropriate wells of the MX-1 cell plate. The final compound concentrations in the wells were 3, 1, 0.3, 0.1, 0.03, 0.01, 0.003, 0.001, 0.0003 and 0.0001 μM.
Luminescence readings from the Cell Titer Glo assay were normalized to the DMSO treated cells and analyzed using the GraphPad Prism software with sigmoidal curve fitting to obtain EC50s. The minimum significant ratio (MSR) was determined to evaluate assay reproducibility (Eastwood et al., (2006) J Biomol Screen, 11: 253-261).

[3] = target: T2, BRD4 (BDII_E352-M457) (Homo sapiens, UniProt O60885); assay: TR-FRET bromodomain binding assay, second bromodomain of BRD4; settings: His-tagged BD2, 30 nM Alexa647 probe; TR-FRET protocol A-E given per row
T2 construct: proliferation; Protocol; made in house
In short: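 His-tagged BRD4 BD2 ([…]) competed against an Alexa647-labelled BET-inhibitor probe in TR-FRET. Buffer was 20 mM sodium phosphate pH 6.0, 50 mM NaCl, 1 mM EDTA, 0.01% Triton X-100, 1 mM DTT, with method D DMSO series of 2.5 mM–800 nM (stock range). IC50 from 4-parameter fit, Ki from probe Kd and concentration.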

Ki [1] [nM] | EC50 ([2]; Homo sapiens, MX1, 72 h) [nM] | Ki [3] [nM] | EC50 [2] [nM] | Structure (SMILES)
13 | 36 | 18 | – | CCS(=O)(=O)C(C)c1ccc(Oc2ccc(F)cc2F)c(-c2cn(C)c3c(=O)[nH]ccc23)c1 (single isomer, unassigned) [Example 56]
14 | – | 37 | 66 | CCS(=O)(=O)C(C)c1ccc(Oc2ccc(F)cc2F)c(-c2cn(C)c3c(=O)[nH]ccc23)c1 (single isomer, unassigned) [Example 57]
85 | 584 | 313 | – | Cn1cc(-c2ccccc2Oc2ccccc2)c2cc[nH]c(=O)c21 [Example 1, 1-methyl-3-(2-phenoxyphenyl)-1,6-dihydro-7H-pyrrolo[2,3-c]pyridin-7-one]
26 | 161 | 43 | – | CC(C)S(=O)(=O)Nc1ccc(Oc2ccc(F)cc2F)c(-c2cn(C)c3c(=O)[nH]ccc23)c1 [Example 3, N-[4-(2,4-difluorophenoxy)-3-(1-methyl-7-oxo-6,7-dihydro-1H-pyrrolo[2,3-c]pyridin-3-yl)phenyl]propane-2-sulfonamide]
10 | 67 | 29 | – | CCS(=O)(=O)Nc1ccc(Oc2ccc(Cl)cc2)c(-c2cn(C)c3c(=O)[nH]ccc23)c1 [Example 5, N-[4-(4-chlorophenoxy)-3-(1-methyl-7-oxo-6,7-dihydro-1H-pyrrolo[2,3-c]pyridin-3-yl)phenyl]ethanesulfonamide]
2.8 | 36 | 57 | – | CCS(=O)(=O)Nc1ccc(O[C@H]2CC[C@H](OC)CC2)c(-c2cn(C)c3c(=O)[nH]ccc23)c1 [Example 6, N-{4-[(trans-4-methoxycyclohexyl)oxy]-3-(1-methyl-7-oxo-6,7-dihydro-1H-pyrrolo[2,3-c]pyridin-3-yl)phenyl}ethanesulfonamide]
4 | 93 | 16 | – | CCS(=O)(=O)Nc1ccc(OC2CCOCC2)c(-c2cn(C)c3c(=O)[nH]ccc23)c1 [Example 7, N-[3-(1-methyl-7-oxo-6,7-dihydro-1H-pyrrolo[2,3-c]pyridin-3-yl)-4-(tetrahydro-2H-pyran-4-yloxy)phenyl]ethanesulfonamide]
1.6 | 33 | 6.4 | – | CCS(=O)(=O)Nc1ccc(OC2CCC(F)(F)CC2)c(-c2cn(C)c3c(=O)[nH]ccc23)c1 [Example 8, N-{4[(4,4-difluorocyclohexyl)oxy]-3-(1-methyl-7-oxo-6,7-dihydro-1H-pyrrolo[2,3-c]pyridin-3-yl)phenyl}ethanesulfonamide]
12 | 128 | 29 | – | CCS(=O)(=O)Nc1ccc(O[C@H]2CC[C@@H](OC)CC2)c(-c2cn(C)c3c(=O)[nH]ccc23)c1 [Example 9, N-{4-[(cis-4-methoxycyclohexyl)oxy]-3-(1-methyl-7-oxo-6,7-dihydro-1H-pyrrolo[2,3-c]pyridin-3-yl)phenyl}ethanesulfonamide]
18 | 225 | 142 | – | CCS(=O)(=O)Nc1ccc(OC2COC2)c(-c2cn(C)c3c(=O)[nH]ccc23)c1 [Example 10, N-[3-(1-methyl-7-oxo-6,7-dihydro-1H-pyrrolo[2,3-c]pyridin-3-yl)-4-(oxetan-3-yloxy)phenyl]ethanesulfonamide]
173 | 136 | 213 | – | Cn1cc(-c2cc(NS(C)(=O)=O)c(Oc3ccc(F)cc3F)cc2Oc2ccc(F)cc2F)c2cc[nH]c(=O)c21 [Example 13, N-[2,4-bis(2,4-difluorophenoxy)-5-(1-methyl-7-oxo-6,7-dihydro-1H-pyrrolo[2,3-c]pyridin-3-yl)phenyl]methanesulfonamide]
109 | – | 47 | – | COC(=O)/C=C/N(c1ccc(F)cc1)c1ccc(CS(C)(=O)=O)cc1-c1cn(C)c2c(=O)[nH]ccc12 [Example 166, methyl (2E)-3-[(4-fluorophenyl) {2-(1-methyl-7-oxo-6,7-dihydro-1H-pyrrolo[2,3-c]pyridin-3-yl)-4-[(methylsulfonyl)methyl]phenyl}amino]prop-2-enoate]
386 | – | 1200 | – | COc1ccc(Oc2cccc(CNc3ccc(Oc4ccc(F)cc4F)c(-c4cn(C)c5c(=O)[nH]ccc45)c3)c2)cc1 [Example 168, 3-[2-(2,4-difluorophenoxy)-5-{[3-(4-methoxyphenoxy)benzyl]amino}phenyl]-1-methyl-1,6-dihydro-7H-pyrrolo[2,3-c]pyridin-7-one]
71 | – | 226 | – | Cn1cc(-c2cc(NCc3cccc(C#N)c3)ccc2Oc2ccc(F)cc2F)c2cc[nH]c(=O)c21 [Example 172, 3-({[4-(2,4-difluorophenoxy)-3-(1-methyl-7-oxo-6,7-dihydro-1H-pyrrolo[2,3-c]pyridin-3-yl)phenyl]amino}methyl)benzonitrile]
214 | – | 781 | – | Cn1cc(-c2cc(NCc3ccc(Oc4ccccc4)cc3)ccc2Oc2ccc(F)cc2F)c2cc[nH]c(=O)c21 [Example 173, 3-{2-(2,4-difluorophenoxy)-5[(4-phenoxybenzyl)amino]phenyl}-1-methyl-1,6-dihydro-7H-pyrrolo[2,3-c]pyridin-7-one]
57.5 | – | 215 | – | Cn1cc(-c2cc(NCCC(C)(C)C)ccc2Oc2ccc(F)cc2F)c2cc[nH]c(=O)c21 [Example 174, 3-{2-(2,4-difluorophenoxy)-5-[(3,3-dimethylbutyl)amino]phenyl}-1-methyl-1,6-dihydro-7H-pyrrolo[2,3-c]pyridin-7-one]
69.1 | – | 285 | – | Cn1cc(-c2cc(NCc3c(F)cccc3F)ccc2Oc2ccc(F)cc2F)c2cc[nH]c(=O)c21 [Example 175, 3-{5-[(2,6-difluorobenzyl)amino]-2-(2,4-difluorophenoxy)phenyl}-1-methyl-1,6-dihydro-7H-pyrrolo[2,3-c]pyridin-7-one]
69.9 | – | 231 | – | Cn1cc(-c2cc(NCc3ccnc4ccccc34)ccc2Oc2ccc(F)cc2F)c2cc[nH]c(=O)c21 [Example 179, 3-{2-(2,4-difluorophenoxy)-5-[(quinolin-4-ylmethyl)amino]phenyl}-1-methyl-1,6-dihydro-7H-pyrrolo[2,3-c]pyridin-7-one]
29.2 | – | 99.9 | – | CCS(=O)(=O)Nc1ccc(Oc2ccc(F)cc2F)c(-c2cn(C)c3c(=O)[nH]c(CN4CCOCC4)cc23)c1 [Example 182, N-{4-(2,4-difluorophenoxy)-3-[1-methyl-5-(morpholin-4-ylmethyl)-7-oxo-6,7-dihydro-1H-pyrrolo[2,3-c]pyridin-3-yl]phenyl}ethanesulfonamide]
7.63 | – | 54.6 | – | CCS(=O)(=O)Nc1ccc(Oc2ccc(F)cc2F)c(-c2cn(C)c3c(=O)[nH]c(C(=O)N4CCOCC4)cc23)c1 [Example 191, N-{4-(2,4-difluorophenoxy)-3-[1-methyl-5-(morpholin-4-ylcarbonyl)-7-oxo-6,7-dihydro-1H-pyrrolo[2,3-c]pyridin-3-yl]phenyl}ethanesulfonamide]
10.5 | – | 68.5 | – | CCS(=O)(=O)Nc1ccc(Oc2ccc(F)cc2F)c(-c2cn(C)c3c(=O)[nH]c(C(=O)N4CCC(O)CC4)cc23)c1 [Example 194, N-[4-(2,4-difluorophenoxy)-3-{5-[(4-hydroxypiperidin-1-yl)carbonyl]-1-methyl-7-oxo-6,7-dihydro-1H-pyrrolo[2,3-c]pyridin-3-yl]phenyl}ethanesulfonamide]
3.18 | – | 10.9 | – | CCS(=O)(=O)Nc1ccc(Oc2ccc(F)cc2F)c(-c2cn(C)c3c(=O)[nH]c(C(=O)NCCN4CCCCC4)cc23)c1 [Example 198, 3-{2-(2,4-difluorophenoxy)-5-[(ethylsulfonyl)amino]phenyl}-1-methyl-7-oxo-N-[2-(piperidin-1-yl)ethyl]-6,7-dihydro-1H-pyrrolo[2,3-c]pyridine-5-carboxamide]
3.47 | – | 11.4 | – | CCS(=O)(=O)Nc1ccc(Oc2ccc(F)cc2F)c(-c2cn(C)c3c(=O)[nH]c(C(=O)NCc4ccoc4)cc23)c1 [Example 201, 3-{2-(2,4-difluorophenoxy)-5-[(ethylsulfonyl)amino]phenyl}-N-(furan-3-ylmethyl)-1-methyl-7-oxo-6,7-dihydro-1H-pyrrolo[2,3-c]pyridine-5-carboxamide]
